Legend:
[1] = Inhibition of recombinant rat/human ADAMTS7 hybrid using HiLyteFluor-488 DELSSMVLELRGLRT-K(QXL520)-E-NH2 as substrate incubated for 120 mins and measured by FRET assay
[2] = Inhibition of recombinant rat/human ADAMTS12 hybrid using HiLyteFluor-488 DELSSMVLELRGLRT-K(QXL520)-E-NH2 as substrate incubated for 120 mins and measured by FRET assay

In the case of CCC1(CNC(=O)c2cnn(-c3ccc(F)cc3)n2)NC(=O)NC1=O (racemic), the IC50 [1] is reported as 200 nM and the IC50 [2] is reported as 13000 nM.

For CCC(C)C1(CNC(=O)c2cnn(-c3ccc(F)cc3)n2)NC(=O)NC1=O (racemic), the IC50 [1] was 10 nM and the IC50 [2] was 2200 nM.

Molecule O=C1NC(=O)C(CNC(=O)c2cnn(-c3ccccc3)n2)(C2CCC2)N1 (racemic) has an IC50 [1] of 55 nM and an IC50 [2] of 14000 nM.

Work on O=C1NC(=O)C(CNC(=O)c2cnn(-c3ccc(F)cc3)n2)(c2ccccc2)N1 (racemic) yielded an IC50 [1] of 69 nM and an IC50 [2] of over 50000 nM.

O=C1NC(=O)C(CNC(=O)c2cnn(-c3ccccc3)n2)(C2CCOCC2)N1 (racemic) gave an IC50 [1] of 128 nM and an IC50 [2] of 9950 nM.

In the case of Cc1nc(C2(CNC(=O)c3cnn(-c4ccc(F)cc4)n3)NC(=O)NC2=O)c(C)s1 (racemic), the IC50 [1] is reported as 100 nM and the IC50 [2] is reported as 2800 nM.

Work on CCCCC1(CNC(=O)c2cnn(-c3ccc(F)cc3)n2)NC(=O)NC1=O (racemic) yielded an IC50 [1] of 120 nM and an IC50 [2] of 8300 nM.

With CCCCC1(CNC(=O)c2cnn(-c3ccccc3)n2)NC(=O)NC1=O (racemic) the IC50 [1] was 89 nM and the IC50 [2] was 15000 nM.

With CC(C)C1(CNC(=O)c2cnn(-c3cc(F)c(F)c(F)c3)n2)NC(=O)NC1=O (racemic) the IC50 [1] was 52 nM and the IC50 [2] was 6000 nM.

Cn1ccnc1C1(CNC(=O)c2cnn(-c3ccccc3)n2)NC(=O)NC1=O (racemic) showed an IC50 [1] of 4 nM and an IC50 [2] of 360 nM.

For O=C1NC(=O)C(CNC(=O)c2cnn(-c3ccc(F)cc3)n2)(C2CCC2)N1 (racemic), the IC50 [1] was 98 nM and the IC50 [2] was 35000 nM.

For CC(C)C1(CNC(=O)c2cnn(-c3cccc(C#N)c3)n2)NC(=O)NC1=O (racemic), the IC50 [1] was 170 nM and the IC50 [2] was 6000 nM.

In the case of Cn1ccnc1C1(CNC(=O)c2cnn(-c3ccc(F)cc3)n2)NC(=O)NC1=O (racemic), the IC50 [1] is reported as 4 nM and the IC50 [2] is reported as 320 nM.

In the case of O=C1NC(=O)C(CNC(=O)c2cnn(-c3ccc(F)cc3)n2)(C2(Cl)CC2)N1 (racemic), the IC50 [1] is reported as 74 nM and the IC50 [2] is reported as 3700 nM.

Molecule O=C1NC(=O)C(CNC(=O)c2cnn(-c3ccc(F)c(Cl)c3)n2)(c2nccs2)N1 (racemic) has an IC50 [1] of 35 nM and an IC50 [2] of 1200 nM.

CC(C)(C)C1(CNC(=O)c2cnn(-c3ccc(F)cc3)n2)NC(=O)NC1=O (racemic) showed an IC50 [1] of 69 nM and an IC50 [2] of 6000 nM.

CCn1nccc1C1(CNC(=O)c2cnn(-c3ccc(F)cc3)n2)NC(=O)NC1=O (racemic) showed an IC50 [1] of 14 nM and an IC50 [2] of 2800 nM.

O=C1NC(=O)C(CNC(=O)c2cnn(-c3ccc(Cl)c(F)c3)n2)(c2nccs2)N1 (racemic) showed an IC50 [1] of 19 nM and an IC50 [2] of 1100 nM.

With Cc1scnc1C1(CNC(=O)c2cnn(-c3ccc(F)cc3)n2)NC(=O)NC1=O (racemic) the IC50 [1] was 8 nM and the IC50 [2] was 680 nM.

O=C1NC(=O)C(CNC(=O)c2cnn(-c3ccc(F)cc3)n2)(c2nccs2)N1 (racemic) gave an IC50 [1] of 39 nM and an IC50 [2] of 2400 nM.

O=C1NC(=O)C(CNC(=O)c2cnn(-c3cccc(F)c3)n2)(c2nccs2)N1 (racemic) showed an IC50 [1] of 12 nM and an IC50 [2] of 600 nM.

CC(C)C1(CNC(=O)c2cnn(-c3ccc(F)c(F)c3)n2)NC(=O)NC1=O (racemic) gave an IC50 [1] of 11 nM and an IC50 [2] of 2500 nM.

For O=C1NC(=O)C(CNC(=O)c2cnn(-c3ccc(F)cc3)n2)(c2ncsc2C(F)(F)F)N1 (racemic), the IC50 [1] was 48 nM and the IC50 [2] was 6600 nM.

Molecule CC(C)C1(CNC(=O)c2cnn(-c3ccc(Cl)c(F)c3)n2)NC(=O)NC1=O (racemic) has an IC50 [1] of 13 nM and an IC50 [2] of 2800 nM.

Molecule CC(C)C1(CNC(=O)c2cnn(-c3ccc(F)cc3F)n2)NC(=O)NC1=O (racemic) has an IC50 [1] of 98 nM and an IC50 [2] of 20000 nM.

In the case of CC(C)C1(CNC(=O)c2cnn(-c3cccc(F)c3)n2)NC(=O)NC1=O (racemic), the IC50 [1] is reported as 46 nM and the IC50 [2] is reported as 4500 nM.

O=C1NC(=O)C(CNC(=O)c2cnn(-c3ccc(F)cc3)n2)(CC2CC2)N1 (racemic) showed an IC50 [1] of 240 nM and an IC50 [2] of 50000 nM.

Work on Cn1ccnc1C1(CNC(=O)c2cnn(-c3cc(F)c(F)c(F)c3)n2)NC(=O)NC1=O (racemic) yielded an IC50 [1] of 5 nM and an IC50 [2] of 200 nM.

CC1(CNC(=O)c2cnn(-c3ccc(F)cc3)n2)NC(=O)NC1=O (racemic) showed an IC50 [1] of 560 nM and an IC50 [2] of 5000 nM.

Molecule O=C1NC(=O)C(CNC(=O)c2cnn(-c3ccccc3)n2)(C2CCCCC2)N1 (racemic) has an IC50 [1] of 145 nM and an IC50 [2] of 50000 nM.

Work on O=C1NC(=O)C(CNC(=O)c2cnn(-c3ccc(F)cc3)n2)(C2CCCC2)N1 (racemic) yielded an IC50 [1] of 380 nM and an IC50 [2] of 50000 nM.

O=C1NC(=O)C(CNC(=O)c2cnn(-c3ccc(F)cc3)n2)(c2ccnn2C(F)F)N1 (racemic) gave an IC50 [1] of 29 nM and an IC50 [2] of 2400 nM.

For O=C1NC(=O)C(CNC(=O)c2cnn(-c3ccc(F)cc3)n2)(C2CCOCC2)N1 (racemic), the IC50 [1] was 260 nM and the IC50 [2] was 9300 nM.

O=C1NC(=O)C(CNC(=O)c2cnn(-c3ccc(F)cc3)n2)(c2ccnn2CC(F)(F)F)N1 (racemic) showed an IC50 [1] of 50 nM and an IC50 [2] of 3200 nM.

Molecule O=C1NC(=O)C(CNC(=O)c2cnn(-c3ccccc3)n2)(C2CCCC2)N1 (racemic) has an IC50 [1] of 191 nM and an IC50 [2] of 50000 nM.

CC(C)(C)C1(CNC(=O)c2cnn(-c3ccccc3)n2)NC(=O)NC1=O (racemic) showed an IC50 [1] of 70 nM and an IC50 [2] of 15000 nM.

CC(C)C1(CNC(=O)c2cnn(-c3ccc(F)cc3)n2)NC(=O)NC1=O (racemic) gave an IC50 [1] of 42 nM and an IC50 [2] of 16000 nM.

O=C1NC(=O)C(CNC(=O)c2cnn(-c3ccc(F)cc3F)n2)(c2nccs2)N1 (racemic) showed an IC50 [1] of 87 nM and an IC50 [2] of 6600 nM.

CCCC1(CNC(=O)c2cnn(-c3ccc(F)cc3)n2)NC(=O)NC1=O (racemic) showed an IC50 [1] of 170 nM and an IC50 [2] of 19000 nM.

O=C1NC(=O)C(CNC(=O)c2cnn(-c3ccc(F)cc3)n2)(c2ncccc2C(F)(F)F)N1 (racemic) showed an IC50 [1] of 59 nM and an IC50 [2] of 15000 nM.

With O=C1NC(=O)C(CNC(=O)c2cnn(-c3ccc(F)cc3)n2)(c2ncsc2C2CC2)N1 (racemic) the IC50 [1] was 8 nM and the IC50 [2] was 460 nM.

With CC(C)(C)C1(CNC(=O)c2cnn(-c3ccccc3)c2)NC(=O)NC1=O (racemic) the IC50 [1] was 550 nM and the IC50 [2] was 5600 nM.

O=C1NC(=O)C(CNC(=O)c2cnn(-c3ccc(F)cc3)n2)(C2CC(F)(F)C2)N1 (racemic) showed an IC50 [1] of 220 nM and an IC50 [2] of over 50000 nM.

With Cc1ncsc1C1(CNC(=O)c2cnn(-c3ccc(F)cc3)n2)NC(=O)NC1=O (racemic) the IC50 [1] was 37 nM and the IC50 [2] was 2500 nM.

Cn1nccc1C1(CNC(=O)c2cnn(-c3ccc(F)cc3)n2)NC(=O)NC1=O (racemic) gave an IC50 [1] of 10 nM and an IC50 [2] of 2400 nM.

With CCCC1(CNC(=O)c2cnn(-c3ccccc3)n2)NC(=O)NC1=O (racemic) the IC50 [1] was 240 nM and the IC50 [2] was 19000 nM.

Work on O=C1NC(=O)C(CNC(=O)c2cnn(-c3ccccc3)n2)(CC2CC2)N1 (racemic) yielded an IC50 [1] of 670 nM and an IC50 [2] of 25000 nM.

For O=C1NC(=O)C(CNC(=O)c2cnn(-c3ccc(F)cc3)n2)(C2(F)CC2)N1 (racemic), the IC50 [1] was 190 nM and the IC50 [2] was 7900 nM.

O=C1NC(=O)C(CNC(=O)c2cnn(-c3ccc(F)cc3)n2)(C2CCC2)N1 (single isomer, unassigned) gave an IC50 [1] of 24 nM and an IC50 [2] of 4380 nM.

In the case of O=C1NC(=O)C(CNC(=O)c2cnn(-c3ccc(F)cc3)n2)(c2ccnn2C(F)F)N1 (single isomer, unassigned; atropisomer), the IC50 [1] is reported as 18 nM and the IC50 [2] is reported as 1700 nM.

In the case of O=C1NC(=O)C(CNC(=O)c2cnn(-c3ccccc3)n2)(C2CCC2)N1 (stereo in doubt), the IC50 [1] is reported as 78 nM and the IC50 [2] is reported as 11000 nM.

In the case of O=C1NC(=O)C(CNC(=O)c2cnn(-c3ccccc3)n2)(c2ccccn2)N1 (stereo in doubt), the IC50 [1] is reported as 10 nM and the IC50 [2] is reported as 2800 nM.

Work on CCCCC1(CNC(=O)c2cnn(-c3ccc(F)cc3)n2)NC(=O)NC1=O (stereo in doubt) yielded an IC50 [1] of 48 nM and an IC50 [2] of 3100 nM.

Work on CCCCC1(CNC(=O)c2cnn(-c3ccccc3)n2)NC(=O)NC1=O (stereo in doubt) yielded an IC50 [1] of 191 nM and an IC50 [2] of 19000 nM.

In the case of CC(C)C1(CNC(=O)c2cnn(-c3cc(F)c(F)c(F)c3)n2)NC(=O)NC1=O (stereo in doubt), the IC50 [1] is reported as 20 nM and the IC50 [2] is reported as 3300 nM.

With CC(C)C1(CNC(=O)c2cnn(-c3ccccc3)n2)NC(=O)NC1=O (stereo in doubt) the IC50 [1] was 76 nM and the IC50 [2] was 10000 nM.

For O=C1NC(=O)C(CNC(=O)c2cnn(-c3ccc(F)c(Cl)c3)n2)(c2nccs2)N1 (stereo in doubt), the IC50 [1] was 14 nM and the IC50 [2] was 780 nM.

CC(C)(C)C1(CNC(=O)c2cnn(-c3ccc(F)cc3)n2)NC(=O)NC1=O (stereo in doubt) showed an IC50 [1] of 79 nM and an IC50 [2] of 2200 nM.

In the case of O=C1NC(=O)C(CNC(=O)c2cnn(-c3ccc(Cl)c(F)c3)n2)(c2nccs2)N1 (stereo in doubt), the IC50 [1] is reported as 5 nM and the IC50 [2] is reported as 400 nM.

Cc1scnc1C1(CNC(=O)c2cnn(-c3ccc(F)cc3)n2)NC(=O)NC1=O (stereo in doubt) showed an IC50 [1] of 2 nM and an IC50 [2] of 200 nM.

Work on O=C1NC(=O)C(CNC(=O)c2cnn(-c3ccc(F)cc3)n2)(c2nccs2)N1 (stereo in doubt) yielded an IC50 [1] of 15 nM and an IC50 [2] of 1400 nM.

Work on O=C1NC(=O)C(CNC(=O)c2cnn(-c3ccc(F)cc3)n2)(CC2CC2)N1 (stereo in doubt) yielded an IC50 [1] of 130 nM and an IC50 [2] of 6200 nM.

Work on O=C1NC(=O)C(CNC(=O)c2cnn(-c3ccc(F)cc3)n2)(C2CCCC2)N1 (stereo in doubt) yielded an IC50 [1] of 33 nM and an IC50 [2] of 5900 nM.

In the case of O=C1NC(=O)C(CNC(=O)c2cnn(-c3ccc(F)cc3)n2)(C2CCOCC2)N1 (stereo in doubt), the IC50 [1] is reported as 37 nM and the IC50 [2] is reported as 1500 nM.

O=C1NC(=O)C(CNC(=O)c2cnn(-c3ccccc3)n2)(C2CCCC2)N1 (stereo in doubt) gave an IC50 [1] of 120 nM and an IC50 [2] of 11000 nM.

Work on CC(C)(C)C1(CNC(=O)c2cnn(-c3ccccc3)n2)NC(=O)NC1=O (stereo in doubt) yielded an IC50 [1] of 47 nM and an IC50 [2] of 13100 nM.

For CC(C)C1(CNC(=O)c2cnn(-c3ccc(F)cc3)n2)NC(=O)NC1=O (stereo in doubt), the IC50 [1] was 8 nM and the IC50 [2] was 2770 nM.

O=C1NC(=O)C(CNC(=O)c2cnn(-c3ccc(F)cc3F)n2)(c2nccs2)N1 (stereo in doubt) showed an IC50 [1] of 78 nM and an IC50 [2] of 5500 nM.

CCCC1(CNC(=O)c2cnn(-c3ccc(F)cc3)n2)NC(=O)NC1=O (stereo in doubt) showed an IC50 [1] of 60 nM and an IC50 [2] of 5100 nM.

Reference: ChEMBL document CHEMBL5052852, “Substituted hydantoinamides as adamts7 antagonists” (2021)
